From patent publication US20240199572A1, “COMPOUNDS, COMPOSITIONS, AND METHODS FOR TREATING TYPE 2 DIABETES AND DEMENTIA” (THE BOARD OF TRUSTEES OF THE UNIVERSITY OF ILLINOIS, priority 2021, published 2024)
pEC50: −log10 of the molar value.

How the values were obtained:
ABCA1 mRNA [1] = test: ABCA1 mRNA - HepG2 (qRT-PCR); type: cell-based, human
Source text: (§1) qRT-PCR. For cell samples, treated cells were lysed with RLT plus lysis buffer (Qiagen). RNA was isolated with Qiagen RNEASY® Plus columns per manufacturer instructions, then reverse-transcribed to cDNA using […]® III Reverse Transcriptase (200 U/μL, Invitrogen) per supplier protocol. qPCR experiments were either performed with TAQMAN® gene expression master mix (Invitrogen) on a StepOne™ qPCR instrument or with […]® SYBR® Green SuperMix (Quanta Biosciences) on CFX Connect™ Real-Time PCR Detection System (BioRad), with fold-change quantified by ΔΔCt. For animal samples, 100 mg tissue was homogenized in 1 mL acid-guanidinium-phenol based reagent sold under the tradename TRIZOL® (Ambion), mixed vigorously in chloroform, and separated by centrifugation. Aqueous layer containing RNA was added to Qiagen RNEASY® Plus column; remaining stops were as described above for cell lysates.

SREBF1 mRNA = SREBF1 mRNA - HepG2 (qRT-PCR); type: cell-based, human
Source text: as §1

ABCA1 mRNA [2] = test: ABCA1 mRNA - J774 (qRT-PCR); type: cell-based, mouse
Source text: as §1

ABCA1 protein = ABCA1 protein - J774 (immunoblot); type: cell-based
Protocol: In vitro Immunoblot. Cells were lysed with RIPA buffer (Sigma) containing protease/phosphatase inhibitors (Cocktails II and III, respectively, EMD Millipore). Protein was quantified by BCA assay (Thermo Fisher Scientific). Denatured proteins were separated by gel electrophoresis (NuPage™ 4-12% Bis-Tris, Invitrogen) in MOPS running buffer at 120 V for 1 hour. Proteins were transferred to PDVF membranes (iBlot2). Membrane was blocked in 5% skim milk for 1 hour, incubated with primary antibody at 4° C. overnight, washed with TBST, and then incubated with HRP-linked secondary antibody (Cell Signaling Technology) for 1 hour at room temperature. After TBST wash, membrane was imaged using SUPERSIGNAL® West Femto™ substrate (Thermo Fisher Scientific) on Azure Biosystems c400 imager. Antibodies used: Abcam ab18180 (ABCA1, RRID:AB 444302), Thermo Fisher MA5-11685 (SREBP1, RRID:AB_10984077), Invitrogen MA5-15738 (GAPDH, RRID:AB_10977387).

RXRγ = target: T1, RXRγ (Homo sapiens, UniProt P48443); test: RXRγ NHR screen, antagonist mode; details: cell-based β-gal reporter assay, 10 μM
T1 sequence (P48443 1-463): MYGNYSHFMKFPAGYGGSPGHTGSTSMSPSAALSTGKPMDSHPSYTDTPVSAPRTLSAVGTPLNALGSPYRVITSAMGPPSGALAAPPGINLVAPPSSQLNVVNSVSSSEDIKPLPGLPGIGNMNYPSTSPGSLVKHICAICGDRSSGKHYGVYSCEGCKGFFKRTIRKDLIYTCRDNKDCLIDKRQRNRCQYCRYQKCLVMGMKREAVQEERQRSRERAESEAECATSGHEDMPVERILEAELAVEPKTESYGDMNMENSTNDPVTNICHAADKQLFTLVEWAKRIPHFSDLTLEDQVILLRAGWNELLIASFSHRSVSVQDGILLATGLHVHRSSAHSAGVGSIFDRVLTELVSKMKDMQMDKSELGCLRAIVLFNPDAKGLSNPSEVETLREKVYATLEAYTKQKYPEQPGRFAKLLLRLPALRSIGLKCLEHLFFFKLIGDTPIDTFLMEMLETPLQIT
Protocol: Receptor Binding Assays. Nuclear hormone (NHR) assays were performed by DiscoverX (Fremont, CA) on their NHR-Scan platform of cell-based protein-protein interaction assays. This platform uses a […] reporter that activates upon interaction of full-length receptor protein with steroid coactivator receptor peptides. In agonist mode, activity of CL2-57 at 10 μM was compared to maximal activity of published positive control agonists; in antagonist mode, reduction in activity with 10 μM CL2-57 from that observed at […] of published agonists was quantified.

LXRβ = target: T2, LXRβ (Homo sapiens, UniProt P55055); test: LanthaScreen TR-FRET coactivator assay LXRβ; type: biochemical; details: read-out: EC50, LXRβ agonism, coactivator recruitment via TR-FRET
T2 construct: purchased Thermo Fisher Scientific
T2 sequence (P55055 212-460 limits assumed): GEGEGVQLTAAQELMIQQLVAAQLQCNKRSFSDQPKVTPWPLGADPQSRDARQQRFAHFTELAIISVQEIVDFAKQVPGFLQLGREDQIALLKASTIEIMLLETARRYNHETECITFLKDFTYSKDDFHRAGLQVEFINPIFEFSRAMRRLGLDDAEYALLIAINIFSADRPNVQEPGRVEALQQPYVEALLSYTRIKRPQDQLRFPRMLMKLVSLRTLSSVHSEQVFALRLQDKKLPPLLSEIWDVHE

PPARγ = target: T3, PPARγ (Homo sapiens, UniProt P37231); test: LanthaScreen TR-FRET coactivator assay PPARγ (antagonism of pioglitazone); type: biochemical
T3 construct: purchased Thermo Fisher Scientific
T3 sequence (P37231 232-505 limits assumed): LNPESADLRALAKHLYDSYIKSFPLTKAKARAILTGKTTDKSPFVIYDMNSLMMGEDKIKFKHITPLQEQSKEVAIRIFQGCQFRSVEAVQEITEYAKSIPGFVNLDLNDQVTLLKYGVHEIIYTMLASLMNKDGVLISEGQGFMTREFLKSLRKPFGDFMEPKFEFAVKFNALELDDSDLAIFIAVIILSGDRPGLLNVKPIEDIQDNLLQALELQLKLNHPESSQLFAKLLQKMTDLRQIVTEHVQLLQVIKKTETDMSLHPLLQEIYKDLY
Protocol: TR-FRET Receptor Binding Assays. LanthaScreen” TR-FRET coactivator assay kits for LXRβ (Thermo Fisher Scientific) and PPARγ (Thermo Fisher Scientific) were performed according to manufacturer instructions using low-binding black 384-well plates and Synergy Neo2 plate reader. For the PPARγ assay, standardization was first performed with control agonist (pioglitazone), then run in two antagonist assays: dose-response of pioglitazone with or without a single concentration of CL2-57, and dose-response of CL2-57 cotreated with a single concentration (500 nM) of pioglitazone. Each compound dose was performed in quadruplicate on each plate, and each experiment was performed in triplicate.

Functional mode at RXRγ (RXRγ): weak antagonist
pEC50 (LXRβ): 5.89
Activity in PPARγ TR-FRET binding assay (PPARγ): Weak competitive antagonism
Right-shift in the TR-FRET dose-response for pioglitazone (PPARγ; addition of 10 μM CL2-57, p<0.01): 2.1 fold
TR-FRET signal reduction (PPARγ; constant pioglitazone concentration, CL2-57 at concentrations ≥1 μM): 20-45%
SMILES: CCOC(=O)c1cccc(NC(=O)c2sc(Cl)cc2S(=O)(=O)N(C)c2ccc(OCC)c(OCC)c2)c1 [CL2-57, ethyl 3-(5-chloro-3-(N-(3,4-diethoxyphenyl)-N-methylsulfamoyl)thiophene-2-carboxamido) benzoate]
ABCA1 mRNA - HepG2, activity of CL2-57 (10 μM) as % of T0901317 (1 μM) (ABCA1 mRNA [1]; 10 μM): 60%
ABCA1 mRNA (ABCA1 mRNA [1]; HepG2 hepatocarcinoma cells): Increased
SREBF1 mRNA - HepG2, activity of CL2-57 (10 μM) as % of T0901317 (1 μM) (SREBF1 mRNA): 39%
ABCA1 mRNA - J774, activity of CL2-57 (10 μM) as % of T0901317 (1 μM) (ABCA1 mRNA [2]; 10 μM): 90%
ABCA1 mRNA (ABCA1 mRNA [2]; J774 macrophage cells): Increased
ABCA1 protein - J774, activity of CL2-57 (10 μM) as % of T0901317 (1 μM) (ABCA1 protein; 10 μM): 132%
ABCA1 protein (ABCA1 protein; J774 macrophage cells): Increased
